Patent US20060122181A1, “Heteroaromatic pentacyclic compound and medicinal use thereof” (Japan Tobacco Inc., priority 2003, published 2006)

`Cc1ccc(OCc2ccc(-c3csc(CN(CC(=O)O)Cc4ccccc4)n3)cc2)c(C(C)(C)C)c1` [Example 1-43] gave a melting point of 146 °C. With `CN(Cc1ccccc1)c1ccc(-c2csc(CN(CC(=O)O)Cc3ccc(Cl)cc3)n2)cc1` [Example 3-49] the melting point was 140 to 142 °C. `CC(C)Cc1ccc(COc2ccc(C(C)(C)C)cc2-c2csc(CN(CC(=O)O)Cc3ccccc3)n2)cc1` [Example 3-12] gave a melting point of 155 to 157 °C. `CCC(CC)c1ccc(COc2ccc(-c3csc(CN(CC(=O)O)Cc4cc(C)cc(C)c4)n3)cc2)cc1` [Example 3-18] showed a melting point of 114 to 119 °C. With `CCCC(CCC)c1ccc(N(Cc2ccc(-c3csc(COc4cc(C(=O)O)ccc4NC(=O)CNC)n3)cc2)C(C)C)cc1` [Example 1-126] the melting point was 210 to 212 °C. In the case of `CCCC(CCC)c1ccc(N(Cc2ccc(-c3csc(CN(CC(=O)O)S(=O)(=O)N(C)c4ccccc4)n3)cc2)C(C)C)cc1` [Example 1-116], the melting point is reported as 146 to 148 °C. `CN(Cc1ccc(CC(C)(C)C)cc1)c1ccc(-c2csc(CN(C)C(Cc3ccccc3)C(=O)O)n2)cc1` (stereo not drawn) [Example 3-89] showed a melting point of 160 to 161 °C. `CCCC(CCC)c1ccc(N(Cc2ccc(-c3csc(COc4cncc(C(=O)O)c4)c3)cc2)C(C)C)cc1` [Example 4-3] showed a melting point of 156 °C. `CCCC(CCC)c1ccc(OCc2ccc(-c3csc(CN(CC(=O)O)CC(=O)Nc4cccnc4)n3)cc2)cc1` [Example 1-96] showed a melting point of 162.5 °C. In the case of `CN(Cc1ccc(C2CCCCC2)cc1)c1ccc(-c2csc(CN(C)c3ccc(C(=O)O)cn3)n2)cc1` [Example 3-84], the melting point is reported as 226 to 228 °C. Compound `CN(Cc1ccc(-c2csc(N(C)Cc3ccc(C(=O)O)cc3)n2)cc1)c1ccc(C2CCCCC2)cc1` [Example 1-18] has a melting point of 190 to 192 °C. Work on `CN(Cc1ccc(C2CCCCC2)cc1)c1ccc(-c2csc(CN(C)S(=O)(=O)CC(=O)O)n2)cc1` [Example 3-102] yielded a melting point of 178 to 183 °C. With `CCC(CC)N(Cc1ccc(-c2csc(CN3Cc4ccccc4C[C@H]3C(=O)O)n2)cc1)c1ccc(C(C)C)cc1` [Example 1-35] the melting point was 110 to 113 °C. Compound `CC(C)Cc1ccc(CN(C)c2ccc(-c3csc(CN(CC(=O)O)Cc4ccc(Cl)cc4)n3)cc2)cc1` [Example 3-47] has a melting point of 153 to 157 °C. `CCCC(CCC)c1ccc(OCc2ccc(-c3csc(CN(CC(=O)O)CC(=O)N(c4ccccc4)C(C)C)n3)cc2)cc1` [Example 1-99] showed a melting point of 115.5 °C. With `CCCC(CCC)c1ccc(OCc2ccc(-c3csc(CN(CC(=O)O)CC(=O)Nc4ccccc4)c3)cc2)cc1` [Example 4-16] the melting point was 155 °C. In the case of `CCCC(CCC)c1ccc(N(Cc2ccc(-c3ccc(CN(CC(=O)O)Cc4nc5ccccc5[nH]4)s3)cc2)C(C)C)cc1` [Example 4-22], the melting point is reported as 144 to 150 °C. Work on `CCCC(CCC)c1ccc(OCc2ccc(-c3csc(CN(C)c4ccc(OCC(=O)O)c(C(=O)O)c4)n3)cc2)cc1` [Example 1-125] yielded a melting point of 122 °C. With `CCCCOc1ccc(S(=O)(=O)N(CC)c2ccc(-c3csc(CN(CC(=O)O)Cc4ccccc4)c3)cc2)cc1` [Example 4-103] the melting point was 120.7 to 123.3 °C. `CC(C)CN(Cc1ccc(-c2csc(CN(CC(=O)O)Cc3ccccc3)n2)cc1)c1ccc(Cl)cc1` [Example 1-24] gave a melting point of 152 °C. With `CCCC(CCC)c1ccc(OCc2ccc(-c3ccc(C(=O)N(CC(=O)O)Cc4ccccn4)s3)cc2)cc1` [Example 4-46] the melting point was 147 to 150 °C. With `CN(Cc1ccc(C2CCCCC2)cc1)c1ccc(-c2csc(CN(C)S(=O)(=O)c3cccc(C(=O)O)c3)n2)cc1` [Example 3-101] the melting point was 164 to 166 °C. `CC(C)Cc1ccc(CN(C)c2ccc(-c3csc(CN(CC(=O)O)C(=O)c4ccccc4)n3)cc2)cc1` [Example 3-61] gave a melting point of 143 to 145 °C. `CCC(CC)c1ccc(COc2ccc(-c3csc(CN(CC(=O)O)Cc4ccc(Cl)cc4)n3)cc2)cc1` [Example 3-17] showed a melting point of 154 to 157 °C. For `CCCC(CCC)c1ccc(OCc2ccc(-c3csc(CN(CC(=O)O)Cc4nc(C(C)(C)C)cs4)c3)cc2)cc1` [Example 4-15], the melting point was 166 °C. `CN(Cc1nc(-c2ccc(N(C)Cc3ccc(C4CCCCC4)cc3)cc2)cs1)C(=O)c1ccc(C(=O)O)cc1` [Example 3-107] gave a melting point of 162 to 164 °C. Work on `CCCC(CCC)c1ccc(COc2ccc(-c3csc(CN(CC(=O)O)Cc4cscn4)n3)c(C)c2)cc1` [Example 3-121] yielded a melting point of 103 to 104 °C. Work on `CC(C)Cc1ccc(CN(C)c2ccc(-c3csc(CN(C)C(Cc4ccccc4)C(=O)O)n3)cc2)cc1` (stereo not drawn) [Example 3-85] yielded a melting point of 138 to 139 °C. Compound `CCCC(CCC)c1ccc(OCc2ccc(-c3csc(CN(CC(=O)O)CC(=O)Nc4ccccc4)n3)cc2)cc1` [Example 1-95] has a melting point of 149.5 °C. `CCCC(CCC)c1ccc(OCc2ccc(-c3csc(CN(CCN)C(=O)c4ccc(C(=O)O)cn4)n3)cc2)cc1.Cl` showed a melting point of 227 to 229 °C. In the case of `CCCC(CCC)c1ccc(N(C)Cc2ccc(-c3csc(COc4ccc(C(=O)O)cc4)n3)cc2)cc1` [Example 1-5], the melting point is reported as 161 to 163 °C. For `CCCC(CCC)c1ccc(N(Cc2ccc(-c3csc(COc4cc(C(=O)O)ccc4NC(C)=O)n3)cc2)C(C)C)cc1` [Example 1-108], the melting point was 129 to 131 °C. For `CCC(CC)c1ccc(N(Cc2ccc(-c3ccc(COc4cncc(C(=O)O)c4)s3)cc2)C(C)C)cc1` [Example 4-17], the melting point was 160 to 164 °C. Work on `CC(C)Cc1ccc(CN(C)c2ccc(-c3csc(CN(CC(=O)O)C(=O)Cc4ccc(Cl)cc4)n3)cc2)cc1` [Example 3-57] yielded a melting point of 150 to 152 °C. With `CCCC(CCC)N(Cc1ccc(-c2csc(COc3ccc(C(=O)O)cc3)n2)cc1)c1ccc(C(C)C)cc1` [Example 1-9] the melting point was 166 to 168 °C. Compound `CC(C)(C)Cc1nc2ccccc2n1Cc1ccc(-c2csc(CN(CC(=O)O)Cc3ccccc3)c2)cc1` [Example 4-85] has a melting point of 161 to 166 °C. For `CCCC(CC)c1ccc(N(Cc2ccc(-c3csc(CN4CCC(C(=O)O)CC4)n3)cc2)C(C)C)cc1` (stereo not drawn) [Example 1-152], the melting point was 149 to 151 °C. With `CN(c1ccc(C(=O)O)cc1)c1nc(-c2ccc(C(=O)Nc3ccc(C4CCCCC4)cc3)cc2)cs1` [Example 1-52] the melting point was 250 °C (dec.). With `CCC(CC)c1ccc(N(Cc2ccc(-c3ccc(CN4Cc5ccccc5C[C@H]4C(=O)O)s3)cc2)C(C)C)cc1` [Example 4-28] the melting point was 152 °C. Work on `CCC(CC)c1ccc(N(Cc2ccc(-c3csc(CN4CCN(c5ccc(C(=O)O)cc5)CC4)n3)cc2)C(C)C)cc1` [Example 1-154] yielded a melting point of 232 to 234 °C. `CCC(CC)c1ccc(N(Cc2ccc(-c3csc(CN(C)c4ccc(OCC(=O)O)c(C(=O)O)c4)n3)cc2)C(C)C)cc1` [Example 1-124] showed a melting point of 124 °C. Compound `CCCC(CCC)c1ccc(CN2CCCc3cc(-c4csc(CN(CC(=O)O)Cc5nc(C(C)(C)C)cs5)n4)ccc32)cc1` [Example 3-125] has a melting point of 132 to 135 °C. Work on `CCC(CC)c1ccc(N(Cc2ccc(-c3ccc(CN(CC(=O)O)Cc4nc5ccccc5[nH]4)s3)cc2)C(C)C)cc1` [Example 4-21] yielded a melting point of 142 to 146 °C. Work on `CCCC(CCC)c1ccc(CN(CC(=O)O)Cc2nc(-c3ccc(N(C)Cc4ccccc4)cc3)cs2)cc1` [Example 3-48] yielded a melting point of 137 to 140 °C. Work on `CN(CC(=O)O)Cc1nc(-c2ccc(N(C)Cc3ccc(C4CCCCC4)cc3)cc2)cs1` [Example 3-80] yielded a melting point of 152 to 155 °C.
